Earlier results, collected in patent publication US4829051A, “N-substituted derivatives of 1-desaminovasopressin” (Vega Laboratories, Inc., priority 1984, dated 1989).

Conditions: in vivo

In the case of NC(=O)CC[C@@H]1NC(=O)[C@H](Cc2ccccc2)NC(=O)[C@H](Cc2ccc(O)cc2)NC(=O)CCSSC[C@@H](C(=O)N2CCC[C@H]2C(=O)N[C@H](CCCN=C(N)N)C(=O)NCC(N)=O)NC(=O)[C@H](CC(N)=O)NC1=O [desmopressin], the Antidiuretic activity is given as “enhanced and prolonged antidiuretic activity” and the Pressor activity is given as “low pressor activity”.
